From patent EP0471298B1, “Carbamoyl-1-(pyridinylalkyl)-1H-indoles, indolines and related analogs” (priority 1990, dated 1992)
Like-named read-outs stand apart in the source and are kept apart here.

Target: T1, Acetylcholinesterase (AChE) (Rattus norvegicus, UniProt P37136)
T1 construct: corpora striata dissected free, weighed and homogenized in 19 volumes; from tissue; host or cells: rat corpora striata (brain) homogenate, male Wistar rats
Test: In vitro inhibition of acetylcholinesterase activity in rat striatum (modified Ellman method)
Assay type: biochemical
Description: Cholinesterases are found throughout the body, both in the brain and in serum. However, only brain acetylcholinesterease (AChE) distribution is correlated with central cholinergic innervation. […] We have determined in vitro inhibition of acetylcholinesterase activity in rat striatum according to the method described below.
In Vitro Inhibition of Acetylcholinesterase Activity in Rat Striatum
The method described below was used in this invention for assaying anticholinesterase activity. This is a modification of the method of Ellman et al., Biochem. Pharmacol. 7, 88 (1961).
• A. Reagents - • 1. 0.05 M Phosphate buffer, pH 7.2 • (a) 6.85 g NaH₂PO₄·H₂O/100 mi distilled H₂O • (b) 13.40 g Na₂HPO₄·7H₂O/100 ml distilled H₂O • (c) add (a) to (b) until pH reaches 7.2 • (d) Dilute 1:10 • 2. […] If active, IC₅₀ values are determined from the inhibitory activity of subsequent concentrations. • B. Tissue Preparation - Male Wistar rats are decapitated, brains rapidly removed, corpora striata dissected free, weighed and homogenized in 19 volumes (approximately 7 mg protein/ml) of 0.05 M phosphate buffer, pH 7.2, using a Potter-Elvehjem homogenizer. […] Assay Enzyme activity is measured with the Beckman DU-50 spectrophotometer. […] This program also calculates the rate of absorbance change for each cuvette. […]

T1 sequence (P37136 32-614): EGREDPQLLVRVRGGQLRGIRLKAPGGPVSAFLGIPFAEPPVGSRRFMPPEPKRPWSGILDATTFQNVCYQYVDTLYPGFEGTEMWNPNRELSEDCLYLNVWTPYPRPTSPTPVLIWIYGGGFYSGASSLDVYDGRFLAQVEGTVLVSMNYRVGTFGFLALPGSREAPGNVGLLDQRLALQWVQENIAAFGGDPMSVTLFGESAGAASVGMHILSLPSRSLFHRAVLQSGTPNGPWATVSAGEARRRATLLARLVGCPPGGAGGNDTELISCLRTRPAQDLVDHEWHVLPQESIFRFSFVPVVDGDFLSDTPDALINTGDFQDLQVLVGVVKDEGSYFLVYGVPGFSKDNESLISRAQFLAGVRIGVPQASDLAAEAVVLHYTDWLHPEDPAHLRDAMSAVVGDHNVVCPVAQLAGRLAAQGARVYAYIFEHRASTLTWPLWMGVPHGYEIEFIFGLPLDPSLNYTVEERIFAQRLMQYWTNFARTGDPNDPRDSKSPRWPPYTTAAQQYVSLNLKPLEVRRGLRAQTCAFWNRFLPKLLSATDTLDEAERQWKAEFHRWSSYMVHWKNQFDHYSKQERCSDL

| SMILES | IC50 | IC50 (Brain acetylcholinesterase, rat striatum homogenate, preincubated 10 minutes at 37°C, acetylthiocholine 5 mM final, pH 7.2, read-out: Inhibitory Concentration IC₅₀) |
| --- | --- | --- |
| CNC(=O)Oc1ccc2c(ccn2Cc2ccncc2)c1 [Example 1, 1-(4-Pyridinylmethyl)-1H-indol-5-yl methylcarbamate] | 6.83 µM | – |
| O=C(NCc1ccccc1)Oc1ccc2c(ccn2Cc2ccncc2)c1 [Example 3, 1-(4-Pyridinylmethyl)-1H-indol-5-yl phenylmethylcarbamate] | – | 12.5 µM |
